Measurements as given in patent publication US8202696B2, “Means for use in treating diseases correlated with or caused by non-physiological levels of microtubule-associated PP2Ac” (Max-Planck-Gessellschaft zur Forderung der Wissenschaften …, priority 2002, dated 2012).
“Also recorded” adds a separate entry of the source. Blank lines part the entries; values can stand above or below the molecule they belong to.

How the values were obtained:
PP2A = assay: hFused phosphorylation in vitro, cytosol incubated with or without fostriecin, Western blot; format: biochemical; conditions: fostriecin 500 nM, 4 h, 30° C.
Description: 8×10^5 cells were transfected with hFused-V5 (aa 1-1335) using Qiagen Polyfect transfection reagent according to the manufacturer's instructions. Cytosol of hFused-V5 overexpressing cells was incubated for 4 h in the presence or absence of fostriecin (500 nM) at 30° C. Proteins (200 μg protein per lane) were separated on a 6% SDS-gel, blotted on PVDF-membranes and incubated with anti-V5-antibody (1:3000). Secondary HRP-antimouse-antibody was diluted 1:2000.
Fostriecin is a highly specific inhibitor of PP2A activity.
Cytosol of V5-tagged hFused-overexpressing cells was incubated for 4 h in the absence (line1) and presence (line2) of fostriecin at 30° C. Subsequently proteins were separated on an SDS-Page, blotted and incubated with an anti-V5 antibody.

Gli3 = assay: Localization of overexpressed GFP-tagged Gli3 in HeLa cells; format: cell-based; conditions: GFP-Gli3 plus B-Box overexpressing HeLa cells
Description: 1×10^5 HELA cells per well of a 6-well plate were transfected with Qiagen Polyfect transfection reagent according to the manufacturer's instructions. The ratio of the amount of DNA to the amount of polyfect transfection reagent was 3 μg DNA/10 μl Polyfect. Constructs used for expression in HELA were the following: GFP-GLI3 (aa 18-1549), GLI3-GFP (aa 1-1522), MYC-GLI3 (aa 18-1596), FLAG-GLI3 (aa18-1596), MYC-B-BOX1 (aa 110-167 of the MID1 protein), ALPHA4-V5 (aa 1-339). 24 h after transfection immunofluorescence was performed. GFP-constructs were treated as described in Schweiger et al., 1999. Immunofluorescence with MYC-tagged and FLAG-tagged constructs was done according to Trockenbacher et al., 2001. FLAG-tagged constructs were detected with anti-FLAG-antibody diluted 1:500, the secondary antibody FITC-antimouse was diluted 1:1000. For MYC-tagged constructs anti-MYC-antibody 1:300 and CY3-antirabbit 1:1000 were used. […]
Overexpressed Gli3 is predominantly localized in the nucleus (FIG. 10, top left).

proteasome = assay: Polyubiquitinated proteins in the MID1 immune complex, COS7 cells; format: cell-based; conditions: MID1-myc, anti-myc precipitate
Description: Immunoprecipitation, western blotting and immunofluorescence. For COS7 cells, we lysed in IP1 buffer 8×10^6 cells transfected with pBudCE4 vector carrying the respective cDNAs. After preclearing the lysate with 50 μl protein A-agarose (slurry), we incubated supernatants with 2 μg anti-V5 overnight at 4° C. and then for 2 h with 75 μl (slurry) protein A-agarose. After three washes in IP1 buffer, we eluted the proteins with 1× Laemmli buffer at 95° C. MID1-V5 expression was optimal 48 h after doxycyclin removal from 293 tet-off cell lines. We then lysed cells in IP1 buffer and carried out immunoprecipitation with 2 μg anti-V5. We boiled proteins in 1×SDS-PAGE buffer, separated them on 10% and 12% SDS gels, blotted on PVDF membranes (Roche) and blocked and incubated with the respective primary antibody according to the manufacturer's instructions. Because several RING-finger proteins interact with target proteins and thereby elicit their ubiquitin-dependent degradation^8-11, we examined interaction of MID1 with polyubiquitinated proteins. We transfected COS7 cells either with MID1 cDNA or, as a control, with cDNA encoding protein kinase C (PKC), each tagged with a C-terminal V5 epitope or an empty vector, respectively. We treated the cells with 25 μM of LLnL, a proteasome inhibitor, 24 h after transfection to enrich for ubiquitinated proteins. […]

α4 = target: T1, α4 (Homo sapiens, UniProt P78318); assay: Yeast two-hybrid interaction of MID1 constructs with α4; format: binding
T1 construct: expressed in transfected cells; host or cells: L40 yeast strain
T1 sequence (P78318 1-339): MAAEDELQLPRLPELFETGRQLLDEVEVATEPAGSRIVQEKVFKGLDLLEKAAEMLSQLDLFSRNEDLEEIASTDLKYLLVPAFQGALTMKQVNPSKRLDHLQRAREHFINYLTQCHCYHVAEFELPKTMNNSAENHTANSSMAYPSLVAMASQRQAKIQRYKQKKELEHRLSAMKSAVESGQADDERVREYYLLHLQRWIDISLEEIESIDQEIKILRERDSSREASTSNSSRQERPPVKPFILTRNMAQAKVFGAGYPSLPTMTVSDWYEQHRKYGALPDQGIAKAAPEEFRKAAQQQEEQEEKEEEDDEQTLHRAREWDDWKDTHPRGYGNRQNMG
Description: Yeast two-hybrid screening. For yeast two-hybrid screening, we cloned full-length MID1 cDNA into the pBTM116 vector. We then cotransfected this with a human fetal brain cDNA Matchmaker library in the pGAD10 vector (Clontech) into the L40 yeast strain. We plated the transformants on synthetic medium lacking histidine, leucine and tryptophan (his^− leu^− trp^−) and containing 3-amino-1,2,4, triazole, and incubated the plates at 30° C. for 5 days. We assayed his-positive colonies for β-galactosidase activity with a filter assay^47. We isolated plasmid DNA from β-galactosidase-positive clones and cotransfected this again into L40 yeast with MID1-pBTM116 and controls. We selected plasmids that produced growth on selective plates only in combination with MID1-pBTM116, which were assumed to code for MID1 interactors, and sequenced them.
Activity of β-galactosidase in yeast liquid cultures. We assayed cells for β-galactosidase activity by the o-nitrophenyl-β-D-galactopyranoside (ONPG) method^47.
MID1 is a multidomain protein harboring a RING finger, two B-boxes, a coiled-coil region, a fibronectin type III domain and a B30.2 domain^3—all of which are candidate regions for specific protein-protein interactions. To clarify which domain specifically binds α4, we tested several deletion mutants of MID1 for interaction with α4 in the yeast two-hybrid system. […]

tau protein = assay: Tau-1 and pan-Tau immunofluorescence in transfected postnatal sympathetic neurons; format: cell-based, rat; conditions: compared to non-transfected neurons = 100%, two days after transfection
Description: Peripheral sympathetic neurons were obtained from postnatal day 1-3 rats. […] Following mechanical dissociation the cell suspension was filtered through a 40 μm nylon mesh and seeded at 6 SCGs per well into uncoated Falcon dishes for preplating purposes. After 4 hours neurons were transferred into glass floor dishes (Willco Wells B.V., gwst 3522, 3.8 cm^2 area/dish) coated with poly-D-lysine/laminin. Neurons were maintained in RPMI medium containing antibiotics, N2 additive (Invitrogen) and 100 ng/ml nerve growth factor (NGF; Sigma) at 37° C. in a humidified atmosphere with 5% CO2.
Neurons were transfected 2 hours after seeding applying the biolistic approach. This method uses a hand held gun to bombard dissociated neurons at high velocity with micron-size gold particles loaded with DNA. The coating of gold particles with DNA was achieved using a modification of the manufacturer's instructions (Bio-Rad Laboratories). For preparation of 35 cartridges 25 mg gold particles (1.6 μm diameter) were suspended in 50 μl of 0.05 M spermidine. After vortexing and sonication for 5 seconds, 50 μg plasmid DNA dissolved in 50 μl TE buffer was added (for co-transfection experiments, 80 μg were used, i.e., 40 μg Plasmid I+40 μg Plasmid 2). The amount of gold particles and DNA corresponds to a microcarrier loading quantity (MLQ) of about 0.7 (mg/cartridge) and to a DNA loading ratio (DLR) of 2 (μg/mg) for single transfection experiments. DNA, spermidine and gold were then mixed for 5 sec in a variable speed vortexer. At low vortexing speed, 50 μl 1 M CaCl2 was added dropwise to the mixture for association of DNA with the gold particles followed by precipitation for 10 min at room temperature. The supernatant was removed and the pellet rinsed with 800 μl of 100% ethanol. Washing was repeated two times with centrifugation steps at 3000 g between each wash. […]
A fully motorized Zeiss Axiovert 100M microscope equipped for inverted fluorescence was used for visualization of fluorescent neurons. […]

Molecule: C[C@@](O)(/C=C/[C@H]1CC=CC(=O)O1)[C@@H](C[C@@H](O)\C=C/C=C\C=C\CO)OP(=O)(O)O [fostriecin]
Phosphorylated hFused-band on Western blot (PP2A): clear enrichment of the phosphorylated hFused-band | Ratio between phosphorylated and dephosphorylated hFused-form (PP2A; cytosol of V5-tagged hFused-overexpressing cells, control without fostriecin 1.8×): 18 × | Gli3 localization in presence of B-Box overexpression (Gli3): reverse the observed effect

Molecule: CC(=O)N[C@@H](CSC(=O)[C@]1([C@@H](O)C(C)C)NC(=O)[C@H](C)[C@@H]1O)C(=O)O [lactacystin]
High-molecular weight proteins in MID1-myc-containing precipitates (proteasome): enrichment of high-molecular weight proteins

Interaction with α4 (α4): binds α4
Molecule: MID2: protein highly similar in amino acid sequence (83%) to MID1 (PTTAMSSERIACQFCEQDPPRDAVKTCITCEVSYCDRCLRATHPNKKPFTSHRLVEPV; listed as Homo sapiens)

Molecule: inactive mutated form of the B-BOX1: Bbox1 with exchange of alanine 130 to threonine, abolishes association with α4 (ANTMTSAEKVLCQFCDQDPAQDTVKTCVTCEVSYCDECLKATHPNKKPFTGHRLIEPI) [reference compound]
Tau-1 immunoreactivity (dephosphorylated tau) (tau protein): does not show this effect; also recorded: do not exhibit different fluorescent levels
